Where only a bound is given, the exact number is not on record here.

Series [1] relates to A549 cells. The series is described as follows: Cytotoxicity MTT assay of siRNA/nanoparticle formulations and erlotinib. It is filed as cell-based. On the procedure:
MTT assay was used to determine the effect of siG12S loaded nanoparticles on the proliferation of A549 cells. Chemosensitivity of siG12S-treated cells to erlotinib was also assessed. Cells (1×10^4 per well) were seeded in 96 well plates and incubated at 37° C. in a humidified atmosphere with 5% carbon dioxide for 24 h. The cells were then treated with different formulations of nanoparticles, siG12S and erlotinib. Cells were incubated for 72 h. 10 μL of 12 Mm MTT reagent were then added to each well. This was then incubated at 37° C. for 4 h. The medium was aspirated and 50 μL of sterile DMSO was added to each well and mixed thoroughly with pipet. The cells were then incubated at 37° C. for 10 min. The plate was read at 540 and 650 nm.

The conditions of series [2]: in water; cited from earlier work.
Series [3] can be described thus: Photon correlation spectroscopy (PCS): particle size and zeta potential, bevacizumab nanoparticles. It is filed as physicochemical. The conditions noted are these: 5 mg/ml bevacizumab solution. On the procedure:
Particle size (by intensity) and zeta potential measurements were performed by PCS using Zetasizer Nano ZS (Malvern Instruments, U.K.). The pellets formed after centrifugation at 6,500 rpm for 5 min were thoroughly rinsed and resuspended in deionized water by vortexing. The samples were then sonicated for approximately 5 min. Intensity autocorrelation was measured at a scattering angle (θ) of 173° at 25° C. The Z-average and polydispersity index (PDI) were recorded in triplicate. For zeta potential measurement, the samples were loaded into a universal dip cell (Malvern Instruments, U.K.) before recording the zeta potential in triplicate.
The surfactants seemed to have a concentration-dependent influence on the size and zeta potential of the nanoparticles. […] According to the Manufacturer's Manual, PCS is based on Brownian motion and particles with size above 10 μm tend to quickly sediment. In certain embodiments, under these circumstances, size recorded by the instrument may be due to artifact. […] For surfactant controls, distinct concentrations of the surfactants used in the nanoprecipitation process were dissolved in 0.01 N HCl and titrated with 0.1 N NaOH up to pH 8.4. In the case of nanoparticles, an increase in size was observed as the concentration of the non-ionic surfactant in the precipitation medium increased.

The subject of series [4] is A549 cells. The series is described as follows: Uptake/internalization of FITC-labeled bevacizumab particles (flow cytometry, fluorescence microscopy). It is filed as cell-based. The conditions noted are these: 100 μg/mL FITC-labeled particles, 60 min. On the procedure:
(§1) A549 and MRC-5 cells (2×10^4 cells/well) were seeded in 8 well coated glass slides and incubated for 48 h. […] Cells were washed with PBS, fixed with 2% paraformaldehyde, and incubated at room temperature for 20 min. PBS washed cells were then blocked with 5% BSA for 30 min at room temperature. Cells were stained with AlexaFluoro-555 labeled wheat germ agglutinin (WGA) and 4′,6-diamidino-2-phenylindole (DAPI) to visualize plasma membrane and nucleus respectively. Cells were mounted and observed under a Leica DMI 6000B fluorescence microscope (Leica Microsystems, Exton, Pa.).
About 1 million cells/well were seeded in a 12 well plate and incubated for 48 h. […] The cells were trypsinized and centrifuged at 300 g for 5 min, and the pellet was washed and resuspended in 0.4% trypan blue (TB) solution in PBS to quench the extracellular FITC fluorescence. TB, while quenching the FITC fluorescence of non-internalized particles, causes them to fluoresce red whereas an internalized particle will fluoresce green. […] The samples were then analyzed by flow cytometry (BDFACS caliber). 10,000 cells were measured in each sample.
Mean fluorescence intensity obtained from this experiment was compared to that obtained when the A549 cells were treated with 100 μg/mL FITC-labeled bavacizumab nanoparticles alone. […]

A short description of series [5]: Far-UV circular dichroism, secondary structure estimated with K2D2. Format: physicochemical. The conditions noted are these: bevacizumab particles reconstituted in acetate buffer; K2D2 estimate. On the procedure:
CD measurements were performed with Jasco J-810 Spectropolarimeter (Jasco, Md., USA) operating at 20° C. using 0.5 mg/ml of reconstituted solutions of IgG nanoparticles in acetate buffer. CD spectra were obtained in the far UV region (260-190 nm) using a quartz cell of 0.1 path length in order to probe the stability of the secondary structure of the manufactured nanoparticles. A scanning speed of 50 nm/min with a 0.5-second response time was applied followed by five accumulations for each sample. The experiment was repeated in triplicate for each sample. Surfactants dissolved in the acetate buffer at corresponding concentrations were used as blanks. Signals from blanks were subtracted from sample signals. The CD signals were converted to mean residue weight ellipticity and the percentage of the secondary structure retained was estimated using the K2D2 software.
Far UV CD was used to probe for perturbations in the secondary structure of the antibodies following reconstitution in acetate buffer (pH 6). This was done to test whether the secondary structure of the antibodies was still intact, as major perturbation in the secondary structure of proteins may lead to loss or reduction of biological activity.

The subject of series [6] is A549 cells. Briefly: Cytotoxicity MTT assay of bevacizumab particles. The conditions noted are these: 72 h. It is filed as cell-based. On the procedure: Cells (1×10^4 cells/well) were seeded in 96 well plates and incubated at 37° C. in a humidified air atmosphere with 5% carbon dioxide for 48 h. […] At the end of incubation (after 72 h), MTT reagent was added to each well and incubated for 3 h.
The medium was aspirated, and 100 μL of DMSO was added. The plate was read at 560 nm. Cells treated with DMSO and relevant surfactants were used as a control.
The control contained the appropriate concentrations of the relevant surfactant. (FIGS. 16-18).

Series [7] in a line: Scanning electron microscopy (SEM) particle size estimate. Format: physicochemical. The source says: The morphology of the manufactured nanoparticles and the unprocessed IgG was observed by scanning electron microscopy using the Zeiss Supra 50VP system (Zeiss, Germany). Powders were mounted onto aluminum stubs using double sided adhesive tape and were made electrically conductive by coating in a thin layer of gold. The coated samples were then examined under microscope operated at an acceleration voltage of 5 kV.

The test system of series [8] is MRC-5 cells. The series is described as follows: Uptake/internalization of FITC-labeled bevacizumab particles (flow cytometry, fluorescence microscopy). The conditions noted are these: 100 μg/mL FITC-labeled particles, 60 min. It is filed as cell-based. On the procedure:
as §1
About 1 million cells/well were seeded in a 12 well plate and incubated for 48 h. […] The cells were trypsinized and centrifuged at 300 g for 5 min, and the pellet was washed and resuspended in 0.4% trypan blue (TB) solution in PBS to quench the extracellular FITC fluorescence. TB, while quenching the FITC fluorescence of non-internalized particles, causes them to fluoresce red whereas an internalized particle will fluoresce green. […] The samples were then analyzed by flow cytometry (BDFACS caliber). 10,000 cells were measured in each sample. […]
A549 and MRC-5 cell lines were incubated with FITC-labeled nanoparticles for 15 and 60 minutes. The cells were then washed with D-PBS and extracellular florescence was quenched with trypan blue so that only internalized cells were analyzed. 10,000 cells were measured in each sample.

The test system of series [9] is serum nuclease. The series is described as follows: siRNA stability in serum (50% FBS, gel electrophoresis). Format: in vitro ADME. The conditions noted are these: 37° C., up to 48 h. How it is done:
IgG-poloxamer-188 nanoparticles (IP-nanoparticles) loaded with siG12S, IgG nanoparticles loaded with siG12S and naked siG12S were incubated in F12K medium containing 50% FBS at 37° C. Aliquots of 5 μl samples were taken at time points up to 48 h. Samples were immediately mixed with 2% SDS, and 5 μl TBE urea sample buffer. The mixture was then heated at 70° C. for 3 minutes in order to deactivate the nuclease enzyme in the serum. The integrity of the siRNA was then analyzed using 15% TBE-ureal gel. siRNA bands were visualized by ethidium bromide staining.
Serum stability was assessed by incubating the naked siRNA and siRNA-loaded nanoparticles in 50% serum and the integrity of the siRNA assessed using gel electrophoresis at different time points. FIG. 41 illustrates the finding that naked siRNA was intact immediately after incubation but degraded after 1 h. In contrast, siRNA in IP nanoparticles was intact after 48 h. siRNA in IgG-nanoparticles was also intact up to 24 h. However, IgG-nanoparticles were not able to protect the siRNA after 24 h.

For series [10], the system named is IL-6. Briefly: Immunogenicity and inflammatory reaction in murine macrophages (ELISA). Format: cell-based. The conditions noted are these: RAW 264.7, 24 h. How it is done:
(§2) RAW 264.7 murine macrophage cells were seeded in a 96 well plate at a density of 1.5×10^5/well at 37° C. in humidified air with 5% carbon dioxide for 24 h. The cells were then treated with 100 μg/mL of LPS, naked siG12S, siG12S-loaded IP-nanoparticles, siG12S-loaded IgG-nanoparticles and culture medium seperately for 24 h. TNF-α and IL-6 concentrations in supernatant from cultured cells were analyzed using the respective ELISA kit according to the manufacturer's instructions.

Series [11] deals with TNF-α. Described as above. It is filed as cell-based. The conditions noted are these: RAW 264.7, 24 h. On the procedure: as §2
In series [12] the test system is KRAS. The series is described as follows: In vitro gene silencing, western blot analysis. It is filed as cell-based. The conditions noted are these: A549 cells, 50 nM siRNA, 96 h. On the procedure: A549 cells were transfected 24 h after seeding in a 6-well plate at density of 2×10^5/well. Naked siG12S and control siRNA (Thermal Scientific, Amarillo, Tex.) were transfected with lipofectamine RNAimax transfection reagent (Invitrogen). siRNA-loaded IP and IgG nanoparticles were incubated with the cells at 37° C. in a humidified air environment with 5% carbon dioxide for 96 h. The total concentration of siRNA used in all experiments was 50 nM.
Cells were washed twice with ice-cold PBS and then lysed in M-Per mammalian lysis buffer (Thermo Scientific). The protein concentration of the lysates was determined with the Bradford reagent (Bio Rad), and equal amounts of protein were subjected to SDS-PAGE using a 10% gel. Separated proteins were transferred to a nitrocellulose membrane, which was then exposed to 5% nonfat dried milk in TBS containing 0.1% Tween 20 (0.1% TBST) for 1 h at room temperature and incubated overnight at 4° C. with antibodies against KRAS (Abcam, Cambridge, Mass.) or actin (Sigma). The membranes were then washed with 0.1% TBST before being incubated with horseradish peroxidase-conjugated goat antibodies to rabbit (Santa Cruz Biotechnology). Immune complexes were detected with chemiluminescence reagents (Perkin-Elmer Life Science).

On to `C#Cc1cccc(Nc2ncnc3cc(OCCOC)c(OCCOC)cc23)c1` [erlotinib], for which, in series [1] (alone or with siG12S (50 nM)-loaded IP nanoparticles), the “sensitivity of A549 cells to erlotinib” value was “resistant”.
Regarding “Polyoxyethylene (20) sorbitan monolaurate [Tween 20]”, in series [2], the “critical micelle concentration (CMC)” value is recorded as 0.0075%.
With “Polyoxyethylene (80) sorbitan monooleate [Tween 80]”, the “critical micelle concentration (CMC)” value in [2] was 0.0017%.
As for bevacizumab [Unprocessed bevacizumab], in [3], the “Zeta potential (mV)” value is recorded as −4.6 ± 0.3 mV. Moreover, the “internalization by A549 cells” value in series [4] was “not internalized”. Further, in [5], the “% alpha helix” value is listed as 7.52% and the “% β-sheet” value was 32.19%. The IC50 in series [6] is ~1800 nM. For the same compound, in [7], the “particle size estimated from SEM” value was “approximately 20 μm”. In addition, the “internalization by MRC-5 cells” value in series [8] is listed as “not internalized”.
Consider “naked siG12S: siRNA against mutated KRAS G12S; sense GUUGGAGCUAGUGGCGUAGdTdT (SEQ ID NO:1), antisense SEQ ID NO:2 (sense GUUGGAGCUAGUGGCGUAGNN; antisense CUACGCCACUAGCUCCAACNN; dTdT overhangs, chemistry not fully specified)”, for which the “time siRNA remained intact in serum” value in series [9] is listed as < 1 h. Moreover, in series [10], the “production of IL-6” value was “upgraded the production”. Besides, in series [11], the “production of TNF-α” value is “upgraded the production”. Also, in [1] (50 nM siRNA, 72 h), the “growth of A549 cells” value is recorded as “did not inhibit the growth”. In addition, the “KRAS expression (knockdown)” value in series [12] was “major reduction in KRAS expression”.
Take “polyethylene glycol monooleyl ether [Brij 97]”: in series [2], the “critical micelle concentration (CMC)” value is recorded as 0.029%.
